{"source": "patent US20080081781A1", "about": "“Methods and compositions for the treatment of metabolic syndrome” (priority 2004, published 2008)", "key": {"PKC": {"test_system": "PKC", "assay": "Cellular PKC activity in HepG2 cells (PepTag assay)", "type": "cell-based, human", "procedure": "To determine whether berberine directly activates PKC, pGL3-1.5kIRP transfected HepG2 cells were either not treated, treated with 0.2 μM of calphostin C, 5 μg/ml of berberine or 0.5 μM of PKC activator phorbol-12-myristate-13-acetate (PMA) (Gandino, Oncogene, 5(%), 721-725 (1990) or combinations thereof for eight hours. The activity of total PKC in the control and berberine treated cells was assessed by PKC activity assay.\nCellular PKC activity was analyzed using the PepTag® Assay for Non-Radioactive Detection of Protein Kinase-C or cAMP-Dependent Protein Kinase kit (Promega) according to the protocol. Briefly, after homogenization and partial purification, 10 μl of sample protein was mixed with 5 μl of PepTag® Cl peptide (specific substrate of PKC), 5 μl of reaction buffer and 5 μl of PKC activator solution in a 25 μl reaction system. The reactions were performed at 30° C. for 30 minutes. Then, the samples were loaded onto a 0.8% agarose gel. […] They were transferred to a 96-well plate and quantified using densitometry according to the supplier's protocol. The catalytic activity of total PKC of a specific sample was expressed as pmol/min/mg, representing the number of picomoles of phosphate transferred to the substrate per minute per milligram of proteins of the sample."}, "[1]": {"assay": "Toxicity analysis (LD50) in rats", "details": "rat, in vivo", "procedure": "Rats and mice were administered berberine through a variety of techniques, including orally, through subcutaneous injection, peritoneal injection and intravenous injection."}, "InsR": {"test_system": "InsR", "assay": "InsR expression in Bel-7402 cells", "type": "cell-based, human", "details": "Bel-7402 compared with HepG2", "excerpt": "The effect of berberine on InsR was further confirmed in another hepatoma cell line, Bel-7402 […] (FIG. 18). […] The expression of PPAR-r mRNA in liver cells was not changed by berberine (data not shown)."}, "hyperlipidemia patients": {"test_system": "hyperlipidemia patients", "details": "for Cholesterol / HDL Protein / LDL Protein / Triglycerides: hyperlipidemia patients, n = 32", "experimental": "After three months, fasting serum concentrations of cholesterol, triglycerides, HDL and LDL were measured using standard blood lipid tests."}, "LDLR mRNA": {"test_system": "LDLR mRNA", "assay": "LDLR mRNA stability after actinomycin D in HepG2 cells (Northern blot)", "type": "cell-based, human", "details": "HepG2, berberine 15 hours then actinomycin D 5 μg/ml", "procedure": "HepG2 cells were cultured and then left alone or treated with berberine for 15 hours. After 15 hours, actinomycin D (5 μg/ml) was added to cells at 0, 20, 40, 60, 90, 120, or 150 minutes. Total mRNA was isolated and analyzed by Northern blot for the amount of LDLR mRNA. […] In contrast, the mRNA stability of HMG-CoA reductase was not altered by berberine."}, "rats": {"test_system": "rats", "details": "rat, in vivo"}, "HepG2 cells": {"test_system": "HepG2 cells", "assay": "Glucose consumption of HepG2 cells with insulin, with or without InsR siRNA", "type": "cell-based, human", "details": "[…] berberine, 0.5 nM insulin, 12 hr", "procedure": "Human InsR siRNA duplex, non-specific control siRNA, siRNA transfection reagent and siRNA transfection medium were obtained from Santa Cruz Biotechnology, Inc. (Santa Cruz, Calif.) and the vendor's siRNA transfection procedure was followed. Briefly, HepG2 cells were seeded onto six-well plates in antibiotic-free RPMI-1640 medium containing 10% fetal bovine serum (FBS). After 60-80% confluence of monolayer, FBS containing medium was discarded and cells were washed with siRNA transfection medium (2 mVwell). 0.8 ml of siRNA transfection medium containing 6 μl of human InsR siRNA duplex (or control siRNA) and 6 ld^1 of siRNA transfection reagent were well mixed at room temperature for 30 min, followed by loading onto washed HepG2 cells. After an 8 hr incubation, the transfection mixture was removed and fresh RPMI-1640 medium supplied with 10% FBS was added. The cells were then incubated for 24 hr. Then, the culture medium was replaced with fresh medium and incubated for an additional 24 hr. At the end of incubation, FBS containing medium was removed and replaced with serum-free fresh RPMI-1640 medium. […] After 12 hr incubation, the amount of glucose in the sample medium was determined. The glucose consumption was calculated according to the following formula: glucose level of the fresh RPMI-1640 minus glucose level of the used RPMIN-1640. […]"}, "[2]": {"assay": "Excretion of berberine in rats (urine, fecal matter, gall bladder secretions)", "type": "in vivo, rat", "details": "rat, in vivo, iv", "procedure": "In a final series of animal model studies, rats were orally administered 3H-berberine. Forty-eight hours after administration, excretions were tested for the presence of berberine. 2.7% of the oral dose was measured in the urine and 86% of the oral dose was measured in the fecal matter.\nRats received intravenous berberine (9.25 MBq/kg). Six days accumulation of rat urine and fecal secretions were measured for the presence of berberine. 73% of the intravenous dose of the berberine was found in the accumulated urine in both metabolized and unmetabolized forms. 10.9% of the intravenous dose was found in the fecal matter.\nThree rats were given berberine (9.25 MBq/kg) intravenously. After 24 hours, gall bladder secretions were collected and evaluated for the presence of berberine. There was 10.1±0.9% (x±SD, n=3) of berberine in the gall bladder secretions."}, "[3]": {"test_system": "high fat high cholesterol (HFHC) diet rats", "assay": "Combination treatment with berberine and simvastatin in HFHC diet rats (Table 8)", "type": "in vivo, rat", "details": "oral, after 25 days, daily dose berberine 100 mg/kg, simvastatin 25 mg/kg, combination 100 + 25, average ± standard error", "procedure": "Rats were fed a high fat high cholesterol (HFHC) diet for 10 days, and then divided into groups of seven. The rats were then administered berberine or simvastatin, or a combination of berberine and simvastatin orally for 25 days. After 25 days, serum cholesterol, triglyceride and LDL-c levels were measured. […] The combination of simvastatin, and berberine lowered the cholesterol, triglyceride and LDL-c levels further than either alone."}, "[4]": {"details": "After berberine treatment (3 months)"}, "[5]": {"details": "Before berberine treatment (baseline)"}}, "note": "Where two headings read alike, the source gives them in different places."}
{"smiles": "COc1ccc2cc3[n+](cc2c1OC)CCc1cc2c(cc1-3)OCO2", "note": "[berberine]", "values": [{"measurement": "time at which elevation of PKC activity was first observed", "setting": "PKC; after berberine treatment", "value": 0.5, "unit": "h"}, {"measurement": "PKC activity in liver cells", "setting": "PKC; time-dependent", "value": "increased"}, {"measurement": "LD50", "setting": "[1]; intraperitoneal, peritoneal injection", "value": "138 to 146", "unit": "mg/kg"}, {"measurement": "LD50", "setting": "[1]; intravenous injection", "value": "46.2 to 63.3", "unit": "mg/kg"}, {"measurement": "LD50", "setting": "[1]; oral dose", "value": "> 15000", "unit": "mg/kg"}, {"measurement": "LD50", "setting": "[1]; sc, subcutaneous injection", "value": "7970 to 10700", "unit": "mg/kg"}, {"measurement": "InsR expression", "setting": "InsR", "value": "identical upregulating effect"}, {"measurement": "kidney functions (creatine, blood urea nitrogen, total bilirubin)", "setting": "hyperlipidemia patients; human, in vivo", "value": "did not change kidney functions"}, {"measurement": "reduction of alanine aminotransaminase", "setting": "hyperlipidemia patients; human, in vivo", "value": "approximately 48%"}, {"measurement": "reduction of aspartate aminotransaminase", "setting": "hyperlipidemia patients; human, in vivo", "value": "~36", "unit": "%"}, {"measurement": "reduction of gamma glutamyl transpeptidase", "setting": "hyperlipidemia patients; human, in vivo", "value": "~41", "unit": "%"}, {"measurement": "side effects", "setting": "hyperlipidemia patients; human, in vivo", "value": "no side effects were observed with the exception of one patient having mild constipation during treatment"}, {"measurement": "Cholesterol", "setting": "hyperlipidemia patients; [4]", "value": "4.2 ± 0.9", "unit": "mmol/L"}, {"measurement": "HDL Protein", "setting": "hyperlipidemia patients; [4]", "value": "1.1 ± 0.3"}, {"measurement": "LDL Protein", "setting": "hyperlipidemia patients; [4]", "value": "2.4 ± 0.6", "unit": "mmol/L"}, {"measurement": "Triglycerides", "setting": "hyperlipidemia patients; [4]", "value": "1.5 ± 0.9", "unit": "mmol/L"}, {"measurement": "Cholesterol", "setting": "hyperlipidemia patients; [5]", "value": "5.9 ± 0.7", "unit": "mmol/L"}, {"measurement": "HDL Protein", "setting": "hyperlipidemia patients; [5]", "value": "1.1 ± 0.3"}, {"measurement": "LDL Protein", "setting": "hyperlipidemia patients; [5]", "value": "3.2 ± 0.7", "unit": "mmol/L"}, {"measurement": "Triglycerides", "setting": "hyperlipidemia patients; [5]", "value": "2.3 ± 1.8", "unit": "mmol/L"}, {"measurement": "prolongation of turnover rate of LDLR transcript", "setting": "LDLR mRNA", "value": "approximately threefold"}, {"measurement": "birth defects", "setting": "rats", "value": "No birth defects were evident"}, {"measurement": "glucose consumption of human hepatic cells treated with insulin", "setting": "HepG2 cells", "value": "significantly increased"}, {"measurement": "intravenous dose found in accumulated urine (metabolized and unmetabolized forms)", "setting": "[2]", "value": 73, "unit": "%"}, {"measurement": "intravenous dose found in the fecal matter", "setting": "[2]", "value": 10.9, "unit": "%"}, {"measurement": "LDL-c", "setting": "[3]", "value": "1.2 ± 0.2", "unit": "mmol/L"}, {"measurement": "Total Cholesterol", "setting": "[3]", "value": "3.8 ± 0.5", "unit": "mmol/L"}, {"measurement": "Triglyceride", "setting": "[3]", "value": "2.1 ± 0.3", "unit": "mmol/L"}]}
